From ChEMBL document CHEMBL4342450, “Antitumor Activity of Ohmyungsamycin A through the Regulation of the Skp2-p27 Axis and MCM4 in Human Colorectal Cancer Cells” (J Nat Prod, 2020) come the findings set out here.

Molecules are shown by their SMILES.

One assay has as its system MDA-MB-231. Kind of assay: Antiproliferative activity against human MDA-MB-231 cells after 72 hrs by sulforhodamine B assay. The format is functional, cell-based. The conditions noted are these: MDA-MB-231, 72 h.
The subject of a further assay is HCT-116. Kind of assay: Antiproliferative activity against human HCT116 cells after 72 hrs by sulforhodamine B assay. The conditions noted are these: HCT-116, 72 h. It is filed as functional, cell-based. (The SRB assay estimates cell density from bound dye.)
A further assay deals with A549. Nature of the assay: Antiproliferative activity against human A549 cells after 72 hrs by sulforhodamine B assay. The format is functional, cell-based. The following applies: A549, 72 h.
The next assay relates to SK-HEP1. Kind of assay: Antiproliferative activity against human SKHEP1 cells after 72 hrs by sulforhodamine B assay. It is filed as functional, cell-based. The conditions noted are these: SK-HEP1, 72 h.
A further assay relates to SNU-638. Kind of assay: Antiproliferative activity against human SNU638 cells after 72 hrs by sulforhodamine B assay. It is filed as functional, cell-based. The conditions noted are these: SNU-638, 72 h.
The next assay has as its system MRC5. Kind of assay: Antiproliferative activity against human MRC5 cells after 72 hrs by sulforhodamine B assay. The format is cell-based. The conditions noted are these: MRC5, 72 h.

Turning to `COc1cc([C@@H]2c3cc4c(cc3[C@@H](O[C@@H]3O[C@@H]5CO[C@@H](C)O[C@H]5[C@H](O)[C@H]3O)[C@H]3COC(=O)[C@H]23)OCO4)cc(OC)c1O` [ETOPOSIDE], the half-inhibitory concentration (IC50) with MDA-MB-231 stood at 3.85 µM; with HCT-116 it was 0.52 µM; in the assay with A549 it was 0.48 µM; with SK-HEP1, 0.78 µM; in the assay on SNU-638 it was 0.82 µM; in the assay on MRC5 it was 11.2 µM.

As a reminder, the IC50 is the concentration at which inhibition is half-maximal. Lower therefore signals greater potency.
